US8394971B2, “Indole derivatives as selective androgen receptor modulators (SARMS)” (Janssen Pharmaceutica N.V., priority 2004, dated 2013)

How the values were obtained:
[1] = biological target: T1, androgen receptor (adenovirus AdEasy+rAR in L929 cells) (Rattus norvegicus, UniProt P15207); test: L929 Androgen Receptor Functional Assay, Adenovirus Transduction; type: cell-based; settings: L929 agonist testing
T1 construct: expressed in transfected cells
T1 sequence (P15207 1-902): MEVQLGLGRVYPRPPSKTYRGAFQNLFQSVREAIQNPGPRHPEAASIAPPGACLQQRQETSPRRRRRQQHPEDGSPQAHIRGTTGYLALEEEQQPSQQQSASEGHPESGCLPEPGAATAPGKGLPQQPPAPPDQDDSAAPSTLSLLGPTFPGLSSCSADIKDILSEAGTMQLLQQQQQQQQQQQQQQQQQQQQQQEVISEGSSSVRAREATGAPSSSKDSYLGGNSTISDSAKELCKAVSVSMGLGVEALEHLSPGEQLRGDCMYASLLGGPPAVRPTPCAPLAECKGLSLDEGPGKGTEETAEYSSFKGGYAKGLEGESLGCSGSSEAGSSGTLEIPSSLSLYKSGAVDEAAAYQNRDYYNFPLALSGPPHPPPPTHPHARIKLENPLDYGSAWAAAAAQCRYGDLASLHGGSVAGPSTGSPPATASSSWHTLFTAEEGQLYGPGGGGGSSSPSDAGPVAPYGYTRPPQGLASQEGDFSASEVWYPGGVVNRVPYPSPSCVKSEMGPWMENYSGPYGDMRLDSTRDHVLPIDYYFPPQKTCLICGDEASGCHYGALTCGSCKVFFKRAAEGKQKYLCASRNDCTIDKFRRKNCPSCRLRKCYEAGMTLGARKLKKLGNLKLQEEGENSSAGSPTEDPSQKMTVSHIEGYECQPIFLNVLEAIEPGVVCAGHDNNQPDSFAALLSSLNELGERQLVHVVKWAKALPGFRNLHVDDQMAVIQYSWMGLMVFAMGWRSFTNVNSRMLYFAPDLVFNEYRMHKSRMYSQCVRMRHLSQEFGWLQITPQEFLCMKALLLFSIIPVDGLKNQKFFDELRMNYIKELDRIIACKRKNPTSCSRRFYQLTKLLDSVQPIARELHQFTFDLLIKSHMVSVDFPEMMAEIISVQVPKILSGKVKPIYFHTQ
Experimental: L929 cells were plated in 96-well plates at 20,000 cells per well, in DMEM/F12 (GIBCO) containing 10% (v/v) charcoal-treated fetal bovine serum (Hyclone) and lacking phenol red. The plates were then incubated overnight at 37° C. in 5% (v/v) humidified CO2.
Test compound dilutions were prepared in 100% (v/v) DMSO, if necessary. Each dilution was made to 1250× the final desired assay concentration.
First, 2 mL of DMEM/F12 lacking phenol red was pipetted into the wells of a 2-mL 96-well assay block. Next, 4 μL of the 1250× test compound dilutions were pipetted into each well of the assay block. The mixtures within the well were then carefully mixed by pipette.
In a 15 mL or 50 mL sterile centrifuge tube, a 2.5 nM (2.5×) dilution of R1881 (methyl-trienolone) in DMEM/F12 lacking phenol red was prepared.
In a second 15 mL or 50 mL centrifuge tube a solution containing an equal volume of DMEM to the first and an equal volume of 100% (v/v) DMSO to the volume of R1881 used in the first tube was prepared.
In a 15 mL or 50 mL sterile centrifuge tube, a dilution in DMEM/F12 of the adenovirus AdEasy+rAR at an moi of 1:500 per well was prepared.
The medium was removed from the 96-well plates by inversion and dried, inverted, very briefly. As soon as possible after medium removal, 40 μL of the diluted unlabeled test compound was added to each well, in duplicate. To each well designated for antagonist testing was added 40 μL of the 2.5 nM R1881 dilution to the wells for antagonist testing. To each well designated for agonist testing was added 40 μL of the DMSO dilution. Then 20 μL of the diluted adenovirus were added to all wells. The plates were incubated for 48 hours at 37° C. in 5% (v/v) humidified CO2.
To each well was added 100 μL of Steady-Glo luciferase assay substrate (Promega) and the plates were placed on a rotary shaker for 1 min. The plates were then incubated at room temperature in the dark for one hour. The contents of each well were then transferred to a white microtiter plate (Packard) and read on a Luminoskan Ascent (Thermo Lab Systems).
L929 AR percent activity was determined by testing dilutions of the test compound using a concentration of 3000 nM unless otherwise noted. L929 percent inhibition was determined by testing dilutions of the test compound using a concentration of 3000 nM. […] Luciferase activity per well were measured and EC50s and IC50s determined by linear regression.

[2] = test system: testosterone-enhanced ventral prostate and seminal vesicle weights in castrated male Sprague Dawley rats; test: Ventral Prostate and Seminal Vesicle Weight In Vivo Assay; design: species or system rat; settings: immature castrated rats; once daily for five days, usually orally at 40 mg/kg, with testosterone propionate 2 mg/kg s.c.
Experimental: Immature (approximately 50 g) castrated male Sprague Dawley rats (Charles River) were treated once daily for five days with test compound (usually given orally at 40 mg/kg in a volume of 0.3 mL, in 30% cyclodextrin or 0.5% methylcellulose vehicle) and with testosterone propionate (given subcutaneously by injection at the nape of the neck at 2 mg/kg, in a volume of 0.1 mL in sesame oil). On the sixth day, the rats were euthanized by asphyxiation in carbon dioxide. Ventral prostates and seminal vesicles were removed and their wet weights determined.
A test compound was said to be “active” if the non weight adjusted prostate weight was ≦40 mg or the % Inhibition prostate weight, body weight adjusted was ≧40% @2 mg/day dosage.

| Structure (SMILES) | active / inactive (inhibition of testosterone-enhanced prostate weight) [2] | further results |
| --- | --- | --- |
| CC[S+]([O-])CC(C)(O)c1cc2cc(C(F)(F)F)c([N+](=O)[O-])cc2[nH]1 (mixture of isomers) [compound 230] | active | % Activity ([1]; 3000 nM): 0% |
| CCSCC(O)(CC)c1cc2cc(C#N)c(C(F)(F)F)cc2[nH]1 (stereo not shown) [Compound #223] | active | % Activity ([1]; @ 8000 nM): 0 @ 8000 nM % |
| CC(O)(CSc1ccc(N)cc1)c1cc2cc(Cl)c(C(F)(F)F)cc2n1S(C)(=O)=O (racemic) [compound 125] |  | % Activity ([1]; 3000 nM): −5% |
| CSCC(C)(O)c1cc2cc([N+](=O)[O-])c(C(F)(F)F)cc2[nH]1 (single isomer, unassigned) [compound 144] |  | % Activity ([1]; 3000 nM, 3 µM): 0% |
| CC(O)(CSCC(F)(F)F)c1cc2cc(C#N)c(C(F)(F)F)cc2[nH]1 (racemic) [compound 211] |  | % Activity ([1]; 3000 nM): −1% |
| CCSCC(C)(O)c1[nH]c2cc(C(F)(F)F)c(C#N)cc2c1CC (racemic) [compound 344] | active |  |
| CCSCC(C)(O)c1cc2cc(C#N)c(C)cc2[nH]1 (racemic) [compound 446] | inactive |  |
| CCc1c(C(C)(O)CS(=O)(=O)CC)[nH]c2cc(C(F)(F)F)c(C#N)cc12 (single isomer, unassigned) [compound 354] | active |  |
| CCSCC(C)(O)c1cc2cc(C#N)c(Cl)cc2[nH]1 (racemic) [compound 224] | active |  |
| CCSCC(C)(O)c1cc2cc([N+](=O)[O-])c(C(F)(F)F)cc2o1 (racemic) [compound 9] | inactive |  |
| CCSCC(C)(O)c1[nH]c2cc(C(F)(F)F)c(C#N)cc2c1I (racemic) [compound 324] | inactive |  |
| N#Cc1cc2cc(C(O)(C(F)(F)F)C(F)(F)F)[nH]c2cc1C(F)(F)F [compound 357] | active |  |
| CC(O)(CS(=O)(=O)c1ccc(F)cc1)c1cc2cc(Cl)c(C(F)(F)F)cc2[nH]1 (stereo not shown) [compound 85] | inactive |  |
| CCSCC(O)(CC)c1cc2cc(Cl)c(C(F)(F)F)cc2[nH]1 (racemic) [compound 181] | active |  |
| CCS(=O)(=O)CC(C)(O)c1cc2cc([N+](=O)[O-])c(C(F)(F)F)cc2[nH]1 (stereo not shown) [compound 175] | active |  |
| CCSCC(O)c1cc2cc(C#N)c(C(F)(F)F)cc2[nH]1 (racemic) [compound 410] | inactive |  |
| CC(O)(c1[nH]c2cc(C(F)(F)F)c(C#N)cc2c1I)C(F)(F)F (racemic) [compound 330] | active |  |
| CC(C)(O)c1[nH]c2cc(C(F)(F)F)c(Cl)cc2c1I [compound 279] | inactive |  |
| CCSCC(C)(O)Cc1cc2cc([N+](=O)[O-])c(C(F)(F)F)cc2[nH]1 (stereo not shown) [compound 10] | inactive |  |

| Structure (SMILES) | active / inactive (inhibition of testosterone-enhanced prostate weight) [2] | further results |
| --- | --- | --- |
| CC(O)(COc1cccc([N+](=O)[O-])c1)c1cc2cc(C#N)c(C(F)(F)F)cc2[nH]1 (stereo not shown) [Compound #428, 2-[1-Hydroxy-1-methyl-2-(3-nitro-phenoxy)-ethyl]-6-trifluoromethyl-1H-indole-5-carbonitrile] | inactive |  |
| CCSCC(C)(O)c1cc2cc(C#N)c(C)c(I)c2[nH]1 (racemic) [compound 415] | inactive |  |
| CC(C)(O)c1[nH]c2cc(C(F)(F)F)c(Cl)cc2c1Br [compound 280] | inactive |  |
| CSCC(C)(O)c1cc2cc(Cl)c(C(F)(F)F)cc2n1S(C)(=O)=O (stereo not shown) [compound 134] | inactive |  |
| C#Cc1c(C(C)(O)CSCC)[nH]c2cc(C(F)(F)F)c(C#N)cc12 (racemic) [compound 326] | inactive |  |
| CCSCC(C)(O)c1cc2cc(Cl)c(C#N)cc2[nH]1 (single isomer, unassigned) [compound 228] | inactive |  |
| Cc1c(C(C)(C)O)[nH]c2cc(C(F)(F)F)c([N+](=O)[O-])cc12 [compound 290] | inactive |  |
| CCSCC(C)(O)c1[nH]c2cc(C(F)(F)F)c([N+](=O)[O-])cc2c1I (single isomer, unassigned) [compound 241] | inactive |  |
| CCSCC(C)(O)c1cc2cc(N)c(C(F)(F)F)cc2[nH]1 (stereo not shown) [compound 166] | inactive |  |
| CCSCC(O)(c1cc2cc(C#N)c(C(F)(F)F)cc2[nH]1)C(F)(F)F (racemic) [compound 327] | active |  |
| CC(O)(c1cc2cc(C#N)c(C(F)(F)F)cc2[nH]1)C(F)(F)F (stereo not shown) [Compound #335, 2-(2,2,2-Trifluoro-1-hydroxy-1-methyl-ethyl)-6-trifluoromethyl-1H-indole-5-carbonitrile] | active |  |
| CC(C)(O)c1[nH]c2cc(C(F)(F)F)c([N+](=O)[O-])cc2c1I [compound 276] | active |  |
| CC(C)(O)c1[nH]c2cc(C(F)(F)F)c(C#N)cc2c1Cl [compound 287] | inactive |  |
| CCSCC(C)(O)c1cc2cc(C)c(C(F)(F)F)cc2[nH]1 (racemic) [compound 414] | inactive |  |
| CCSCC(C)(CO)c1cc2cc([N+](=O)[O-])c(C(F)(F)F)cc2[nH]1 (stereo not shown) [compound 11] | inactive |  |
| CCSCC(C)(O)c1cc2cc(C#N)c(C(F)(F)F)cc2n1COC (racemic) [compound 322] | inactive |  |
| CC(C)(O)c1[nH]c2cc(C(F)(F)F)c(Cl)cc2c1Cl [compound 282] | inactive |  |
| CCS(=O)(=O)CC(C)(O)c1cc2cc(C#N)c(C(F)(F)F)cc2[nH]1 (racemic) [compound 407] | inactive |  |
| CC(C)(O)c1[nH]c2cc(C(F)(F)F)c(C#N)cc2c1I [compound 278] | active |  |
